Read-outs that look alike come from different tables or passages of the source.
Columns and labels:
Type in all cases: biochemical
CSNK1A1 = CSNK1A1 (Homo sapiens (Human), UniProt P48729); experiment: CSNK1A1 Assay 2 (ADP-Glo, 1 μM ATP); conditions: median, read-out: CSNK1A1 Assay 2 IC50 [mol/l] (median)
Procedure, shortened: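 ADP-Glo luminescence, taken as ADP formed, reports activity against biotinylated phospho-peptide substrate biotin-Ahx-KRRRAL-pS-VASLPGL at 1 μM ATP.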

CSNK1D = CSNK1D (Homo sapiens (Human), UniProt P48730); experiment: CSNK1D Assay (ADP-Glo, 1 μM ATP); conditions: median, read-out: CSNK1D IC50 [mol/l] (median)
CSNK1D, sequence (P48730 whole entry): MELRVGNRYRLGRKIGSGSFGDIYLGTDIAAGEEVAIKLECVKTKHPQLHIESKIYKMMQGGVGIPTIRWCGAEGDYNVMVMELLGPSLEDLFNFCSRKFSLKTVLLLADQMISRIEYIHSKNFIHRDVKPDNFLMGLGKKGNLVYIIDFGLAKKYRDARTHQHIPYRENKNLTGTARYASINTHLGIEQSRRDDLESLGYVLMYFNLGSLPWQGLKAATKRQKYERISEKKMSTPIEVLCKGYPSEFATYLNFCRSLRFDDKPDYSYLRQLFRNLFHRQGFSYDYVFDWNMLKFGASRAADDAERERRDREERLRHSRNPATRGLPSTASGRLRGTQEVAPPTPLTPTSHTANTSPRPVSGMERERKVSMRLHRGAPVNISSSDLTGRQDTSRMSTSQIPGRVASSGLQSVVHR
Procedure, shortened: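 Enzyme preincubated with compound 15 min at 22° C in 50 mM HEPES pH 7.5 buffer with 10 mM MgCl2, 1 mM DTT; kinase reaction run at 1 μM ATP with biotinylated peptide substrate. ADP formed was detected by ADP-Glo luminescence as the measure of activity.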

[1] = target: wild-type Epidermal Growth Factor Receptor (EGFR) (Homo sapiens (Human), UniProt P00533); experiment: WT-EGFR Kinase Assay (TR-FRET, 2 mM ATP)
wild-type Epidermal Growth Factor Receptor (EGFR), sequence (P00533 669-1210): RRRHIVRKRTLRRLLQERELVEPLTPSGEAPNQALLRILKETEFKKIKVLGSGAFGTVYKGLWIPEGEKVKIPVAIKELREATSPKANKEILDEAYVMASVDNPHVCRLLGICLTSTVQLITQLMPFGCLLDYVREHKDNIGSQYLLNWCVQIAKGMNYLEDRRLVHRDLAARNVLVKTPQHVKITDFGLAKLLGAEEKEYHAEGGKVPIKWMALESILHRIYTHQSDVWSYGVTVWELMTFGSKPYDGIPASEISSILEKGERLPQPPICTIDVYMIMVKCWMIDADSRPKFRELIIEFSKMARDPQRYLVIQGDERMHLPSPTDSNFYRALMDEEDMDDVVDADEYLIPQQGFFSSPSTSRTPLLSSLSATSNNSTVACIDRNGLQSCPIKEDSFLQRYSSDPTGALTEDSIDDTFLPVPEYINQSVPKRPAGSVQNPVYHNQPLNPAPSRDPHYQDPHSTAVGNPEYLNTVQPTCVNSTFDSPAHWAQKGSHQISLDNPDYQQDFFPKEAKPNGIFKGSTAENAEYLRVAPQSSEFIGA
Procedure, shortened: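 TR-FRET read-out of biotinylated peptide phosphorylation, taken as the 665/622 nm ratio after EDTA stop and 1 h detection at 22° C. Kinase: GST fusion of human EGFR aa R669–A1210, given a 15 min compound pre-binding step; reaction run at 2 mM ATP.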

[2] = EGFR Wildtyp 2 mM ATP IC50 [mol/l] (median), median or individual measurements
[3] = read-out: EGFR Wildtyp 2 mM ATP IC50 [mol/l] (median), median or individual measurements

CSNK1A1, sequence (P48729 whole entry): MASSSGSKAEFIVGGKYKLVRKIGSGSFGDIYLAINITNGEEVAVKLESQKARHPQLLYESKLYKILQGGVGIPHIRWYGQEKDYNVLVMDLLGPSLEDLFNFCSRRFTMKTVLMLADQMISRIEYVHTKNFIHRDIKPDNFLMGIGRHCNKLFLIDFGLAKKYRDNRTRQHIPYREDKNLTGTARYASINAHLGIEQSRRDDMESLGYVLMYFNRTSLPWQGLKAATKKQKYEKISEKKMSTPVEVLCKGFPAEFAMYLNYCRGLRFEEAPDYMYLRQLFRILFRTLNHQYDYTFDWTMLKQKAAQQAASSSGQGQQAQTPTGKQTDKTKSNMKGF

Row | Compound | IC50 (CSNK1A1) [nM] | IC50 (CSNK1D) [nM] | IC50 [1, 2] [nM] | IC50 [1, 3] [nM]
1 | CC(C(=O)Nc1cc(-c2[nH]c3ccn(C)c(=O)c3c2-c2ccco2)ccn1)c1ccc(F)cc1 (racemic) [Example 116, 2-(4-fluorophenyl)-N-{4-[3-(2-furyl)-5-methyl-4-oxo-4,5-dihydro-1H-pyrrolo[3,2-c]pyridin-2-yl]pyridin-2-yl}propanamide] | 3.3 | 7.8 | > 5710 | > 5710
2 | CC(C(=O)Nc1cc(-c2[nH]c3ccn(C)c(=O)c3c2-c2cc(F)c(F)c(F)c2)ccn1)c1ccc(F)cc1 (racemic) [Example 117, 2-(4-fluorophenyl)-N-{4-[5-methyl-4-oxo-3-(3,4,5-trifluorophenyl)-4,5-dihydro-1H-pyrrolo[3,2-c]pyridin-2-yl]pyridin-2-yl}propanamide] | 4.7 | 7.4 | > 20000 | –
3 | Cn1ccc2[nH]c(-c3ccnc(NC(=O)C(CC(F)F)c4ccc(F)cc4)c3)c(-c3cccnc3)c2c1=O (racemic) [Example 118, 4,4-difluoro-2-(4-fluorophenyl)-N-{4-[5-methyl-4-oxo-3-(pyridin-3-yl)-4,5-dihydro-1H-pyrrolo[3,2-c]pyridin-2-yl]pyridin-2-yl}butanamide] | 8.6 | 12 | > 20000 | –
4 | CC(C(=O)Nc1cc(-c2[nH]c3ccn(C)c(=O)c3c2-c2ccc(O)cc2)ccn1)c1ccc(F)cc1 (racemic) [Example 119, 2-(4-fluorophenyl)-N-{4-[3-(4-hydroxyphenyl)-5-methyl-4-oxo-4,5-dihydro-1H-pyrrolo[3,2-c]pyridin-2-yl]pyridin-2-yl}propanamide] | 15 | 11 | > 20000 | –
5 | CC(C(=O)Nc1cc(-c2[nH]c3ccn(C)c(=O)c3c2-c2cc(F)ccc2F)ccn1)c1ccc(F)cc1 (racemic) [Example 120, N-{4-[3-(2,5-difluorophenyl)-5-methyl-4-oxo-4,5-dihydro-1H-pyrrolo[3,2-c]pyridin-2-yl]pyridin-2-yl}-2-(4-fluorophenyl)propanamide] | 6.5 | 8.1 | > 20000 | –
6 | CC(C(=O)Nc1cc(-c2[nH]c3ccn(C)c(=O)c3c2-c2cc(F)cc(F)c2)ccn1)c1ccc(F)cc1 (racemic) [Example 121, N-{4-[3-(3,5-difluorophenyl)-5-methyl-4-oxo-4,5-dihydro-1H-pyrrolo[3,2-c]pyridin-2-yl]pyridin-2-yl}-2-(4-fluorophenyl)propanamide] | 7 | 13 | > 5710 | > 5710
7 | CC(C(=O)Nc1cc(-c2[nH]c3ccn(C)c(=O)c3c2-c2ccc(Cl)s2)ccn1)c1ccc(F)cc1 (racemic) [Example 122, N-{4-[3-(5-chloro-2-thienyl)-5-methyl-4-oxo-4,5-dihydro-1H-pyrrolo[3,2-c]pyridin-2-yl]pyridin-2-yl}-2-(4-fluorophenyl)propanamide] | 3.6 | 9 | > 5710 | > 5710
8 | CC(C(=O)Nc1cc(-c2[nH]c3ccn(C)c(=O)c3c2-c2ccccc2C#N)ccn1)c1ccc(F)cc1 (racemic) [Example 123, N-{4-[3-(2-cyanophenyl)-5-methyl-4-oxo-4,5-dihydro-1H-pyrrolo[3,2-c]pyridin-2-yl]pyridin-2-yl}-2-(4-fluorophenyl)propanamide] | 25 | 22 | > 20000 | –
9 | CC(C(=O)Nc1cc(-c2[nH]c3ccn(C)c(=O)c3c2-c2ccccc2O)ccn1)c1ccc(F)cc1 (racemic) [Example 124, 2-(4-fluorophenyl)-N-{4-[3-(2-hydroxyphenyl)-5-methyl-4-oxo-4,5-dihydro-1H-pyrrolo[3,2-c]pyridin-2-yl]pyridin-2-yl}propanamide] | 5.6 | 11 | > 20000 | –
10 | Cc1ccc(-c2c(-c3ccnc(NC(=O)C(C)c4ccc(F)cc4)c3)[nH]c3ccn(C)c(=O)c23)s1 (racemic) [Example 125, 2-(4-fluorophenyl)-N-{4-[5-methyl-3-(5-methyl-2-thienyl)-4-oxo-4,5-dihydro-1H-pyrrolo[3,2-c]pyridin-2-yl]pyridin-2-yl}propanamide] | 3.3 | 5.9 | > 1630 | > 1630
11 | CC(C(=O)Nc1cc(-c2[nH]c3ccn(C)c(=O)c3c2-c2ccnc(N)c2)ccn1)c1ccc(F)cc1 (racemic) [Example 126, N-{4-[3-(2-aminopyridin-4-yl)-5-methyl-4-oxo-4,5-dihydro-1H-pyrrolo[3,2-c]pyridin-2-yl]pyridin-2-yl}-2-(4-fluorophenyl)propanamide] | 55 | 63 | > 20000 | –
12 | CC(C(=O)Nc1cc(-c2[nH]c3ccn(C)c(=O)c3c2-c2cc(F)ccc2C#N)ccn1)c1ccc(F)cc1 (racemic) [Example 127, N-{4-[3-(2-cyano-5-fluorophenyl)-5-methyl-4-oxo-4,5-dihydro-1H-pyrrolo[3,2-c]pyridin-2-yl]pyridin-2-yl}-2-(4-fluorophenyl)propanamide] | 33 | 33 | > 20000 | –
13 | CN1CCc2[nH]c(-c3ccnc(NC(=O)C(CC(F)F)c4ccc(F)cc4)c3)c(-c3cc(F)ccc3C#N)c2C1=O (racemic) [Example 128, N-{4-[3-(2-cyano-5-fluorophenyl)-5-methyl-4-oxo-4,5,6,7-tetrahydro-1H-pyrrolo[3,2-c]pyridin-2-yl]pyridin-2-yl}-4,4-difluoro-2-(4-fluorophenyl)butanamide] | 14 | 12 | > 20000 | –
14 | Cc1ncc(-c2c(-c3ccnc(NC(=O)C(CC(F)F)c4ccc(F)cc4)c3)[nH]c3c2C(=O)N(C)CC3)s1 (racemic) [Example 129, 4,4-difluoro-2-(4-fluorophenyl)-N-{4-[5-methyl-3-(2-methyl-1,3-thiazol-5-yl)-4-oxo-4,5,6,7-tetrahydro-1H-pyrrolo[3,2-c]pyridin-2-yl]pyridin-2-yl}butanamide] | 15 | 13 | > 20000 | –
15 | CC(C(=O)Nc1cc(-c2[nH]c3ccn(C)c(=O)c3c2-c2cccs2)ccn1)c1ccc(F)cc1 (racemic) [Example 130, 2-(4-fluorophenyl)-N-{4-[5-methyl-4-oxo-3-(2-thienyl)-4,5-dihydro-1H-pyrrolo[3,2-c]pyridin-2-yl]pyridin-2-yl}propanamide] | 2.4 | 3.9 | > 20000 | –
16 | CC(C(=O)Nc1cc(-c2[nH]c3ccn(C)c(=O)c3c2-c2ccsc2)ccn1)c1ccc(F)cc1 (racemic) [Example 131, 2-(4-fluorophenyl)-N-{4-[5-methyl-4-oxo-3-(3-thienyl)-4,5-dihydro-1H-pyrrolo[3,2-c]pyridin-2-yl]pyridin-2-yl}propanamide] | 7 | 10 | > 20000 | –
17 | Cc1c(-c2ccnc(NC(=O)C(C)c3ccc(F)cc3)c2)[nH]c2ccn(C)c(=O)c12 (racemic) [Example 132, N-[4-(3,5-dimethyl-4-oxo-4,5-dihydro-1H-pyrrolo[3,2-c]pyridin-2-yl)pyridin-2-yl]-2-(4-fluorophenyl)propanamide] | 6.3 | 11 | > 20000 | –
18 | Cn1ccc2[nH]c(-c3ccnc(NC(=O)C(CC(F)F)c4ccc(F)cc4)c3)c(-c3ccc(Cl)s3)c2c1=O (racemic) [Example 133, N-{4-[3-(5-chloro-2-thienyl)-5-methyl-4-oxo-4,5-dihydro-1H-pyrrolo[3,2-c]pyridin-2-yl]pyridin-2-yl}-4,4-difluoro-2-(4-fluorophenyl)butanamide] | 2.3 | 4.8 | > 20000 | –
19 | O=C(Nc1cc(-c2[nH]c3ccn(C4CC4)c(=O)c3c2-c2ccc(F)cc2)ccn1)C(CC(F)F)c1ccc(F)cc1 (racemic) [Example 134, N-{4-[5-cyclopropyl-3-(4-fluorophenyl)-4-oxo-4,5-dihydro-1H-pyrrolo[3,2-c]pyridin-2-yl]pyridin-2-yl}-4,4-difluoro-2-(4-fluorophenyl)butanamide] | 5.5 | 7 | > 20000 | –
20 | O=C(Nc1cc(-c2[nH]c3ccn(C4CC4)c(=O)c3c2-c2ccccc2)ccn1)C(CC(F)F)c1ccc(F)cc1 (racemic) [Example 137, N-[4-(5-cyclopropyl-4-oxo-3-phenyl-4,5-dihydro-1H-pyrrolo[3,2-c]pyridin-2-yl)pyridin-2-yl]-4,4-difluoro-2-(4-fluorophenyl)butanamide] | 2.6 | 3 | > 20000 | –
21 | CN1CCc2[nH]c(-c3ccnc(NC(=O)C(CC(F)F)c4ccc(F)cc4)c3)c(-c3cscn3)c2C1=O (racemic) [Example 138, 4,4-difluoro-2-(4-fluorophenyl)-N-{4-[5-methyl-4-oxo-3-(1,3-thiazol-4-yl)-4,5,6,7-tetrahydro-1H-pyrrolo[3,2-c]pyridin-2-yl]pyridin-2-yl}butanamide] | 8.9 | 8.8 | > 20000 | –
